The values below come from the Kinase Knowledgebase extract (Sharma et al. 2016).

One may read the pIC50 as −log10 of the IC50, conventionally taken in molar units.

The target in assay [1] is PIK3CD (Human) (UniProt O00329). Briefly: Assessment of PIK3CD Kinase Activity.
The target in assay [2] is PIK3CG (human) (UniProt P48736). As to the kind of experiment: Assessment of PIK3CG Kinase Activity.
For assay [3], the target named is PIK3CA (human) (UniProt P42336). Briefly: Assessment of PIK3CA Kinase Activity.
PIK3CA (human), sequence (P42336 whole entry, looked up): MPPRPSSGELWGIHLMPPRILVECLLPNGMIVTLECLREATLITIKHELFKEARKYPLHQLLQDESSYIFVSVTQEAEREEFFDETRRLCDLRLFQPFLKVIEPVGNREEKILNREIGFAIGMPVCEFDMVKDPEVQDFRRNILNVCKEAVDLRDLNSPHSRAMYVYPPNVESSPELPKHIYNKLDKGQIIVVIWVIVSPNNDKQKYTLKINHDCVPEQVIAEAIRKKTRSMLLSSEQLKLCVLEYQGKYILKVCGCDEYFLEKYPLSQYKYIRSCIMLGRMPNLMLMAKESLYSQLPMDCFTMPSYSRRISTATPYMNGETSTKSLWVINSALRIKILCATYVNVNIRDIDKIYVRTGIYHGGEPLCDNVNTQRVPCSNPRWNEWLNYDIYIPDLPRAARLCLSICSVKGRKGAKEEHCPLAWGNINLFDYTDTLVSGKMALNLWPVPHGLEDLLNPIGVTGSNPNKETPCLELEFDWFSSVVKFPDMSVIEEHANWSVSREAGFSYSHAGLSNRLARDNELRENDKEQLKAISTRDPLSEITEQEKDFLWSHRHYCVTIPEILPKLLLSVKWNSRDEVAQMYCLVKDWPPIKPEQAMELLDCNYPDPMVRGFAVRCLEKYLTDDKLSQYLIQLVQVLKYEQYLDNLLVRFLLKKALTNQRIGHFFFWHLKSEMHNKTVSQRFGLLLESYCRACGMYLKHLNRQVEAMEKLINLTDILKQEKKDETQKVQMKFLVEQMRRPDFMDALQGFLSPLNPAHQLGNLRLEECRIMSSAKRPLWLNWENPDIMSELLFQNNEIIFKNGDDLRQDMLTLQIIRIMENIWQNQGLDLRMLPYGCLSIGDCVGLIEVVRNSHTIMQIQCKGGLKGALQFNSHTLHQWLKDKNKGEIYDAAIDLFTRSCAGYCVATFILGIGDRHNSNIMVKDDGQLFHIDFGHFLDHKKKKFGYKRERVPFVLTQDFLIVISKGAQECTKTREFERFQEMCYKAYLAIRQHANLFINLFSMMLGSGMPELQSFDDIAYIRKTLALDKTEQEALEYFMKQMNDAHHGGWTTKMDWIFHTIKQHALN

Structures are written as SMILES. pIC50: −log10 of the molar value.

PIK3CD (Human), sequence (O00329 whole entry, looked up): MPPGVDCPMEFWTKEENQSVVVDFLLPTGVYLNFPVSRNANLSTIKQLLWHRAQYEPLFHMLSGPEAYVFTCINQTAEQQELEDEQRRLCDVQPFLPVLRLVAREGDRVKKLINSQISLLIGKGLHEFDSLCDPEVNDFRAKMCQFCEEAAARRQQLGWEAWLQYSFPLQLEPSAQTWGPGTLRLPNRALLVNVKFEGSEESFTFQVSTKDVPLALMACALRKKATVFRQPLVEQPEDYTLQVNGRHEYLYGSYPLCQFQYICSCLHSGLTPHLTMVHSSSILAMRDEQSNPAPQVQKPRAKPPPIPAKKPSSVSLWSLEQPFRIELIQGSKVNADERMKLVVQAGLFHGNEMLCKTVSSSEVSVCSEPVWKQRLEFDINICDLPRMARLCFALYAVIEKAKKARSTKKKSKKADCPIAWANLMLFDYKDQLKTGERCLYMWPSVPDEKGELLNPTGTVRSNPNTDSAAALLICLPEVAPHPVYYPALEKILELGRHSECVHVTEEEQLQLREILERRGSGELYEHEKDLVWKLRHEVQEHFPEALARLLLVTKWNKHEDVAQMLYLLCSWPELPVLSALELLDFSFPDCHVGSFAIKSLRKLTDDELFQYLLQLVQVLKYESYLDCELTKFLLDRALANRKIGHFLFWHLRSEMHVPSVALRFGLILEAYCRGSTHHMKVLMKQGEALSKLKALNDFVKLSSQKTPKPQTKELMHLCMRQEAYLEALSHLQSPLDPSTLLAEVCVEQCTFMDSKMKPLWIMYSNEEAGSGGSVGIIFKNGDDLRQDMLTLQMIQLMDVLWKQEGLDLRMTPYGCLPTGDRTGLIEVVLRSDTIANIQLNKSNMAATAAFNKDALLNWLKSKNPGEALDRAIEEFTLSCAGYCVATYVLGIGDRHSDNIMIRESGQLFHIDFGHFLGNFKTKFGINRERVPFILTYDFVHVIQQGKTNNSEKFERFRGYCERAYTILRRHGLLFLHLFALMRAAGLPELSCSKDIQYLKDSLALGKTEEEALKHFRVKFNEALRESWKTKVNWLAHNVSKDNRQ
PIK3CG (human), sequence (P48736 whole entry, looked up): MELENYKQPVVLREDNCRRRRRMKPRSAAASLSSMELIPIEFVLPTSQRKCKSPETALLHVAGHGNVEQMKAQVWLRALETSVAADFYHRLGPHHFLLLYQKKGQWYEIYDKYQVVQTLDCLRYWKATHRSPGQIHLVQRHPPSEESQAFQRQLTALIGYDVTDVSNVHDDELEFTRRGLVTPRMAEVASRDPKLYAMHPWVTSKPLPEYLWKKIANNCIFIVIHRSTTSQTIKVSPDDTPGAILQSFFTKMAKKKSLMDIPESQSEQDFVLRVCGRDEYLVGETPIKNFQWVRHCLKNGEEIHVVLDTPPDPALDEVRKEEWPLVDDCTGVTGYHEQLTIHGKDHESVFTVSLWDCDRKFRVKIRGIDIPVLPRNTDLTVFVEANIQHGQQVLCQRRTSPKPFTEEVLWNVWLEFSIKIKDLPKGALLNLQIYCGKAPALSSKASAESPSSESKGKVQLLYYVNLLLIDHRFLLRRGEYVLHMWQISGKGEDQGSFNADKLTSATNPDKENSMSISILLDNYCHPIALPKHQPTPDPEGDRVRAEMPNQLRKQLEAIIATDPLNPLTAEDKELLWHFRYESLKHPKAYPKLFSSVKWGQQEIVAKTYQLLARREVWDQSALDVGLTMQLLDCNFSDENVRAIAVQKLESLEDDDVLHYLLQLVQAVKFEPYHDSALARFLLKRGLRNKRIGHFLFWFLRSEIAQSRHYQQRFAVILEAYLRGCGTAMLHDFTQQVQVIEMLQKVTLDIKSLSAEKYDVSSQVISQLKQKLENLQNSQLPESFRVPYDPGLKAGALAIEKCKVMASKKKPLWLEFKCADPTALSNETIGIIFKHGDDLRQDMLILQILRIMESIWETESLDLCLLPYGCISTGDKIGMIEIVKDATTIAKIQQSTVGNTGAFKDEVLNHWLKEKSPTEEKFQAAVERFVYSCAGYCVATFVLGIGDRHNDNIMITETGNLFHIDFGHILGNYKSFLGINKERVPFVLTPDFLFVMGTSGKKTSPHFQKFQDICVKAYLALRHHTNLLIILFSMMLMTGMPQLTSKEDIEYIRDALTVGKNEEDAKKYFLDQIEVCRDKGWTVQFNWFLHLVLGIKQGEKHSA

On to `C[C@H](Nc1nc(N)ncc1C#N)c1cc2cccc(-c3cncc(O)c3)c2c(=O)n1-c1ccccc1`, for which the pIC50 in assay [1], in assay [2] and in assay [3] was more than 7.00 throughout.
As for `Cc1cncc(-c2cccc3cc([C@H](C)Nc4nc(N)ncc4C#N)n(-c4cccc(F)c4)c(=O)c23)c1`, the pIC50 was more than 7.00 in assay [1], more than 7.00 in assay [2] and 6.00 to 7.00 in assay [3].
For `COc1cc(-c2cccc3cc([C@H](C)Nc4nc(N)ncc4-c4cnc(OC)s4)n(-c4ccccc4)c(=O)c23)ccn1`, the figures for the pIC50 in assay [1], in assay [2] and in assay [3] were more than 7.00, more than 7.00 and 6.00 to 7.00, respectively.
In the case of `C[C@H](Nc1nc(N)ncc1C#N)c1cc2cccc(Cl)c2c(=O)n1CC(C)(C)C`, the pIC50 in assay [1] was 6.00 to 7.00; in assay [2], 6.00 to 7.00; in assay [3], less than 5.00.
With `COc1ccc(-n2c([C@H](C)Nc3nc(N)ncc3C#N)cc3cccc(Cl)c3c2=O)cc1`, the pIC50 was 6.00 to 7.00 in assay [1], more than 7.00 in assay [2] and less than 5.00 in assay [3].
On the same counts, the results for `CCOc1cc(-c2cccc3cc([C@H](C)Nc4nc(N)ncc4C#N)n(-c4ccccc4)c(=O)c23)ccn1` are more than 7.00, more than 7.00 and 6.00 to 7.00.
Turning to `C[C@H](Nc1nc(N)ncc1C#N)c1cc2cccc(-c3cncc(F)c3)c2c(=O)n1-c1ccccc1`, the pIC50 in assay [1] and in assay [2] was more than 7.00 in each case.
On to `C[C@H](Nc1nc(N)ncc1C#N)c1cc2cccc(-c3ccc4c(c3)OCO4)c2c(=O)n1-c1ccccc1`, for which the pIC50 in assay [1] and in assay [2] was more than 7.00 each time.
As to `C[C@H](Nc1nc(N)ncc1C#N)c1cc2cccc(-c3cccc(N(C)C)c3)c2c(=O)n1-c1ccccc1`, the results for the pIC50 in assay [1], in assay [2] and in assay [3] were more than 7.00, more than 7.00 and 6.00 to 7.00, respectively.
For the compound `C[C@H](Nc1nc(N)ncc1C#N)c1cc2cccc(Cl)c2c(=O)n1Cc1ccccc1`, the pIC50 was more than 7.00 in assay [1], 6.00 to 7.00 in assay [2] and less than 5.00 in assay [3].
On the same counts, the results for `COc1cc(-c2cccc3cc([C@H](C)Nc4nc(N)ncc4-c4cnc(C)s4)n(-c4ccccc4)c(=O)c23)ccn1` are more than 7.00, more than 7.00 and 6.00 to 7.00.
On the same counts, the results for `COc1cc(-c2cccc3cc([C@H](C)Nc4nc(N)ncc4C#N)n(-c4ccccc4)c(=O)c23)cnc1C` are more than 7.00, more than 7.00 and 6.00 to 7.00.
For `C[C@H](Nc1nc(N)ncc1C#N)c1cc2cccc(-c3ccc(=O)n(CC4CC4)c3)c2c(=O)n1-c1ccccc1`, the pIC50 in assay [1] and in assay [2] was more than 7.00 each time.
Regarding `COc1cccc(-c2cccc3cc([C@H](C)Nc4nc(N)ncc4C#N)n(-c4ccccc4)c(=O)c23)n1`, the results for the pIC50 in assay [1], in assay [2] and in assay [3] were more than 7.00, more than 7.00 and less than 5.00, respectively.
Turning to `C[C@H](Nc1nc(N)ncc1C#N)c1cc2cccc(Cl)c2c(=O)n1-c1ccc2c(c1)OCO2`, the negative logarithm of the IC50 (pIC50) in assay [1] was 6.00 to 7.00; in assay [2], more than 7.00; in assay [3], less than 5.00.
Turning to `COc1cncc(-c2cccc3cc([C@H](C)Nc4nc(N)ncc4C(N)=O)n(-c4ccccc4)c(=O)c23)c1`, the pIC50 in assay [1] was more than 7.00; in assay [2], more than 7.00; in assay [3], 6.00 to 7.00.
`C[C@H](Nc1nc(N)ncc1C#N)c1cc2cccc(-c3cccc(S(N)(=O)=O)c3)c2c(=O)n1-c1ccccc1`: the pIC50 in assay [1] and in assay [2] was more than 7.00 throughout.
For `C[C@H](Nc1nc(N)ncc1C#N)c1cc2cccc(-c3ccc(N(C)C)cc3)c2c(=O)n1-c1ccccc1`, the negative logarithm of the IC50 (pIC50) in assay [1] and in assay [2] was more than 7.00 in each case.
Consider `COc1cc(-c2cccc3cc([C@H](C)Nc4nc(N)ncc4C#N)n(-c4cccc(F)c4)c(=O)c23)ccn1`, for which the pIC50 in assay [1] was more than 7.00; in assay [2] it was more than 7.00; in assay [3] it was 6.00 to 7.00.
Take `Cc1cnc(-c2cnc(N)nc2N[C@@H](C)c2cc3cccc(Cl)c3c(=O)n2-c2ccccc2)s1`: the figures for the pIC50 in assay [1], in assay [2] and in assay [3] were 6.00 to 7.00, more than 7.00 and less than 5.00, respectively.
Consider `COc1ccc(-c2cccc3cc([C@H](C)Nc4nc(N)ncc4C#N)n(-c4ccccc4)c(=O)c23)cn1`, for which the pIC50 in assay [1] and in assay [2] was more than 7.00 throughout.
Consider `C[C@H](Nc1nc(N)ncc1C#N)c1cc2cccc(-c3ccc(=O)n(C4CCOCC4)c3)c2c(=O)n1-c1ccccc1`, for which the pIC50 was more than 7.00 in assay [1], more than 7.00 in assay [2] and 6.00 to 7.00 in assay [3].
For `CC(C)n1cc(-c2cccc3cc([C@H](C)Nc4nc(N)ncc4C#N)n(-c4ccccc4)c(=O)c23)ccc1=O`, the negative-log IC50 (pIC50) in assay [1] and in assay [2] was more than 7.00 in each case.
As to `Cc1cc(-c2cccc3cc([C@H](C)Nc4nc(N)ncc4C#N)n(-c4ccccc4)c(=O)c23)ccn1`, the pIC50 in assay [1] was more than 7.00; in assay [2], more than 7.00; in assay [3] it was 6.00 to 7.00.
With `Cc1nc(-c2cnc(N)nc2N[C@@H](C)c2cc3cccc(Cl)c3c(=O)n2-c2ccccc2)sc1C`, the results for the pIC50 in assay [1], in assay [2] and in assay [3] were 6.00 to 7.00, 6.00 to 7.00 and less than 5.00, respectively.
Consider `COc1cc(-c2cccc3nc([C@H](C)Nc4nc(N)ncc4C#N)n(-c4ccccc4)c(=O)c23)ccn1`, for which the pIC50 in assay [1] and in assay [2] was more than 7.00 each time.
For `CCn1cc(-c2cccc3cc([C@H](C)Nc4nc(N)ncc4C#N)n(-c4ccccc4)c(=O)c23)ccc1=O`, the pIC50 in assay [1] and in assay [2] was more than 7.00 throughout.
As for `C[C@H](Nc1nc(N)ncc1C#N)c1cc2cccc(-c3ccc(C#N)cc3)c2c(=O)n1-c1ccccc1`, the pIC50 in assay [1] and in assay [2] was more than 7.00 throughout.
With `C[C@H](Nc1nc(N)ncc1C#N)c1cc2ccccc2c(=O)n1-c1ccccc1`, the pIC50 in assay [1] and in assay [2] was more than 7.00 in each case.
Consider `Cc1cncc(-c2cccc3cc([C@H](C)Nc4nc(N)ncc4C#N)n(-c4ccccc4)c(=O)c23)c1`, for which the pIC50 in assay [1] and in assay [2] was more than 7.00 in each case.
With `COc1ccc(-c2cccc3cc([C@H](C)Nc4nc(N)ncc4C#N)n(-c4ccccc4)c(=O)c23)cc1`, the negative-log IC50 (pIC50) in assay [1] and in assay [2] was more than 7.00 each time.
On to `C[C@H](Nc1nc(N)ncc1C#N)c1cc2cccc(-c3ccnc(NS(C)(=O)=O)c3)c2c(=O)n1-c1ccccc1`, for which the pIC50 in assay [1] and in assay [2] was more than 7.00 each time.
Consider `C[C@H](Nc1nc(N)ncc1C#N)c1cc2cccc(C#CCCC(=O)N3CCCC3)c2c(=O)n1-c1ccccc1`, for which the pIC50 in assay [1] and in assay [2] was more than 7.00 throughout.
With `C[C@H](Nc1nc(N)ncc1C#N)c1nc2cccc(-c3ccnnc3)c2c(=O)n1-c1ccccc1`, the pIC50 in assay [1] and in assay [2] was more than 7.00 throughout.
With `C[C@H](Nc1nc(N)ncc1C#N)c1nc2cccc(-c3cnn(C)c3)c2c(=O)n1-c1ccccc1`, the pIC50 in assay [1] and in assay [2] was more than 7.00 each time.
For `Cc1cc(-c2cccc3nc([C@H](C)Nc4nc(N)ncc4C#N)n(-c4ccccc4)c(=O)c23)ccn1`, the pIC50 in assay [1] and in assay [2] was more than 7.00 each time.
Consider `C[C@H](Nc1nc(N)ncc1-c1nccs1)c1cc2cccc(Cl)c2c(=O)n1-c1ccccc1`, for which the pIC50 in assay [1] and in assay [2] was more than 7.00 throughout.
Regarding `C[C@H](Nc1nc(N)ncc1C#N)c1cc2cccc(-c3ccc(=O)n(C)c3)c2c(=O)n1-c1ccccc1`, the negative-log IC50 (pIC50) in assay [1] and in assay [2] was more than 7.00 in each case.
Regarding `C[C@H](Nc1nc(N)ncc1C#N)c1cc2cccc(-c3ccnc(N)c3)c2c(=O)n1-c1ccccc1`, the pIC50 in assay [1] and in assay [2] was more than 7.00 throughout.
Take `C[C@H](Nc1nc(N)ncc1C#N)c1cc2cccc(-c3ccc(S(N)(=O)=O)cc3)c2c(=O)n1-c1ccccc1`: the pIC50 in assay [1] and in assay [2] was more than 7.00 in each case.
For `C[C@H](Nc1nc(N)ncc1C#N)c1cc2cccc(-c3cccc(NS(C)(=O)=O)c3)c2c(=O)n1-c1ccccc1`, the pIC50 in assay [1] and in assay [2] was more than 7.00 in each case.
`C[C@H](Nc1nc(N)ncc1C#N)c1cc2cccc(-c3ccc(NS(C)(=O)=O)cc3)c2c(=O)n1-c1ccccc1`: the pIC50 in assay [1] and in assay [2] was more than 7.00 each time.
Take `C[C@H](Nc1nc(N)ncc1C#N)c1cc2cccc(-c3cccc(C#N)c3)c2c(=O)n1-c1ccccc1`: the pIC50 in assay [1] and in assay [2] was more than 7.00 throughout.
Regarding `C[C@H](Nc1nc(N)ncc1C#N)c1cc2cccc(-c3cnoc3)c2c(=O)n1-c1ccccc1`, the pIC50 in assay [1] and in assay [2] was more than 7.00 each time.
With `C[C@H](Nc1nc(N)ncc1C#N)c1cc2cccc(Cl)c2c(=O)n1C1CCCCC1`, the pIC50 in assay [1] and in assay [2] was more than 7.00 in each case.
For `COc1ncc(-c2cccc3cc([C@H](C)Nc4nc(N)ncc4C#N)n(-c4ccccc4)c(=O)c23)s1`, the pIC50 in assay [1] and in assay [2] was more than 7.00 each time.
Consider `C[C@H](Nc1nc(N)ncc1C#N)c1cc2cccc(Cl)c2c(=O)n1-c1ccc(C#N)cc1`, for which the figures for the pIC50 in assay [2] and in assay [3] were 6.00 to 7.00 and less than 5.00, respectively.
Take `COc1ncc(-c2cccc3cc([C@H](C)Nc4nc(N)ncc4C#N)n(C4CC4)c(=O)c23)cn1`: the pIC50 in assay [1] was more than 7.00; in assay [2], 6.00 to 7.00.
On the same counts, the results for `Cc1cc(-c2cccc3cc([C@H](C)Nc4nc(N)ncc4C#N)n(-c4cccc(F)c4)c(=O)c23)ccn1` are more than 7.00 and more than 7.00.
Consider `C[C@H](Nc1nc(N)ncc1C#N)c1cc2cccc(-c3c[nH]nn3)c2c(=O)n1-c1ccccc1`, for which the pIC50 in assay [1] and in assay [2] was more than 7.00 each time.
Consider `Cc1ncc(-c2cccc3cc([C@H](C)Nc4nc(N)ncc4C#N)n(-c4ccccc4)c(=O)c23)s1`, for which the pIC50 in assay [1] and in assay [2] was more than 7.00 each time.
Turning to `C[C@H](Nc1nc(N)ncc1C#N)c1cc2cccc(-c3ccc(Cl)cc3)c2c(=O)n1-c1ccccc1`, the pIC50 in assay [1] and in assay [2] was more than 7.00 throughout.
Consider `C[C@H](Nc1nc(N)ncc1C#N)c1cc2cccc(-c3cncc(C(F)(F)F)c3)c2c(=O)n1-c1ccccc1`, for which the negative-log IC50 (pIC50) in assay [1] and in assay [2] was more than 7.00 each time.
On to `C[C@H](Nc1nc(N)ncc1C#N)c1cc2cccc(-c3cncc(S(C)(=O)=O)c3)c2c(=O)n1-c1ccccc1`, for which the negative-log IC50 (pIC50) in assay [1] and in assay [2] was more than 7.00 in each case.
